Assay results reported in ChEMBL document CHEMBL1157259, “Cytotoxic and other compounds from Didymochlaena truncatula from the Madagascar rain forest” (J Nat Prod, 2006).
Converted amounts (≈) assume the structure as drawn.

Tested on: A2780
Experiment: Cytotoxicity against human A2780 cells by clonogenic assay
Type: functional, cell-based

| Structure (SMILES) | IC50 |
| --- | --- |
| COc1cc(O)cc(/C=C/c2ccccc2)c1 [PINOSYLVIN METHYL ETHER] | 10 µg/mL (≈ 44.2 µM) |
| CC[C@@]1(O)C(=O)OCc2c1cc1n(c2=O)Cc2cc3c(OC)cccc3nc2-1 | 0.02 µg/mL (≈ 0.0529 µM) |
| CC[C@@]1(O)C(=O)OCc2c1cc1n(c2=O)Cc2cc3ccccc3nc2-1 [CAMPTOTHECIN] | 0.07 µg/mL (≈ 0.201 µM) |
